Reference: ChEMBL document CHEMBL1145294, “Genotoxic activity of halogenated phenylglycine derivatives” (Bioorg Med Chem Lett, 2006)
Calls of active or inactive are those of the source. The rule behind the calls is not given here.

Experiments:
MCF7 = assay: Cytotoxicity against MCF7 cells; type: cell-based; settings: human
NCI-H460 = assay: Cytotoxicity against NCI-H460 cells; type: cell-based; settings: human
SF-268 = assay: Cytotoxicity against SF268 cells; type: functional, cell-based; settings: Homo sapiens
Saccharomyces cerevisiae [1] = assay: Cytotoxicity against Saccharomyces cerevisiae rad52; type: organism-based; settings: in vivo
Saccharomyces cerevisiae [2] = assay: Cytotoxicity against Saccharomyces cerevisiae rad52-ku80; type: organism-based; settings: in vivo
Saccharomyces cerevisiae [3] = assay: Cytotoxicity against Saccharomyces cerevisiae rad14; type: organism-based; settings: in vivo
Saccharomyces cerevisiae [4] = assay: Cytotoxicity against Saccharomyces cerevisiae mec1-1; type: organism-based; settings: in vivo
Saccharomyces cerevisiae [5] = assay: Cytotoxicity against Saccharomyces cerevisiae rad53-11; type: organism-based; settings: in vivo

SMILES | Activity (MCF7) | Activity (NCI-H460) | Activity (SF-268) | Activity (Saccharomyces cerevisiae [1]) | Activity (Saccharomyces cerevisiae [2]) | Activity (Saccharomyces cerevisiae [3]) | Activity (Saccharomyces cerevisiae [4]) | Activity (Saccharomyces cerevisiae [5])
COC(=O)Cc1cc(I)c(OC)c(I)c1 | Not Active | Not Active | inactive | – | – | – | – | –
COC(=O)C(NC(=O)c1ccccc1)c1ccc(OC)c(I)c1 (stereo unspecified) | Active | Active | Active | Active | Active | Active | Active | Active
COC(=O)Nc1ccc(C(NC(=O)c2ccccc2)C(=O)O)cc1I (stereo unspecified) | Not Active | Not Active | inactive | – | – | – | – | –
O=C(NC(C(=O)O)c1ccc(O)c(I)c1)c1ccccc1 (stereo unspecified) | Not Active | Not Active | inactive | – | – | – | – | –
COc1ccc(C(O)C(=O)O)cc1I (stereo unspecified) | Not Active | Not Active | inactive | – | – | – | – | –
COC(=O)C(c1ccc(OC)c(I)c1)N1C(=O)c2ccccc2C1=O (stereo unspecified) | Not Active | Not Active | inactive | – | – | – | – | –
COC(=O)C(Sc1ccccc1)c1ccc(OC)c(I)c1 (stereo unspecified) | Not Active | Not Active | inactive | – | – | – | – | –
COC(=O)C(NC(=O)c1ccccc1)c1ccc(OC)c(Br)c1 (stereo unspecified) | – | – | – | Active | Active | Active | Active | Active
COc1ccc(C(OC(C)=O)C(=O)O)cc1I (stereo unspecified) | Not Active | Not Active | inactive | – | – | – | – | –
COC(=O)Cc1ccc(OC)c(I)c1 | Not Active | Not Active | inactive | – | – | – | – | –
COC(=O)C(O)c1ccc(OC)c(I)c1 (stereo unspecified) | Not Active | Not Active | inactive | – | – | – | – | –
COC(=O)C(OC(C)=O)c1ccc(OC)c(I)c1 (stereo unspecified) | Not Active | Not Active | inactive | – | – | – | – | –
CC(C)(C)[Si](Oc1ccc(C(NC(=O)c2ccccc2)C(=O)O)cc1I)(c1ccccc1)c1ccccc1 (stereo unspecified) | Active | Active | Active | – | – | – | – | –
